# Several values for one entry are separate records, joined by “and”; a condition that tells them apart may be missing. Equal values may be shown once.
# Experiments:
# [1] = system: Salmonella Typhimurium TA100; details: Ames MPF
# Protocol: The mutagenicity was evaluated using Ames microplate fluctuation protocol (MPF) from Xenometrix (Allschwil, Switzerland). The applied Salmonella Typhimurium TA100 strain was enabled to detect base-pair substitution (hisG46 mutation, for which target is GGG). Les-3331 was tested independently in two final concentrations, 1 and 5 µM, in triplicate. The reference mutagen 4-NQO was tested at 26.3 µM. The occurrence of revertants was visualized using pH indicator dye, which was present in the bacterial medium. The color changes from violet to yellow were confirmed using measurements of absorbance with a microplate reader, EnSpire, at 420 nm. According to the protocols and data sheets provided by Xenometrix, the medium control baseline (MCB) was calculated first, which refers to the number of revertants observed in the control (growth medium + 1% DMSO) plus standard deviation. Next, the Binomial B-value was calculated for tested compounds which indicates the probability that spontaneous mutations occurred. The fold increase ≥2 over the MCB and/or Binomial B-value ≥ 0.99 are considered as the mutagen alert.
# [2] = Metabolic stability with rat liver microsomes (RLMs); assay type: in vitro ADME
# Protocol: The metabolic stability was estimated using rat liver microsomes (RLMs) obtained from Sigma-Aldrich (St. Louis, MO, USA). Les-3331 was incubated in the presence of RLMs and NADPH Regeneration System (Promega, Madison, WI, USA) in Tris-HCl buffer (pH 7.4) for 120 min. Cold ethanol was added next to stop the reaction. The reaction mixture was centrifuged. The aforementioned UPLC-MS device was used to analyze the supernatant. MS/MS ion fragment analyses were performed for Les-3331 and the main metabolite. The in silico prediction of possible Les-3331 metabolic pathways was performed by MetaSite 8.0.1. Software (Molecular Discovery Ltd., Hertfordshire, UK).
# human skin fibroblasts = experiment: MTT cell viability assay, skin fibroblasts; assay type: cell-based; details: Skin fibroblast, 24 h incubation
# Protocol: Cell culture MCF-7, MDA-MB-231 human breast cancer cells, and fibroblasts skin cells were purchased from the ATCC—American Type Culture Collection. All cell lines were maintained in DMEM (Corning, Kennebunk, ME, USA). The medium was supplemented with 10% fetal bovine serum—FBS (Eurx, Gdansk, Poland) and 1% antimicrobial substances: penicillin–streptomycin (Corning, Kennebunk, ME, USA). The incubator asserted appropriate growth conditions required for these cell lines: 5% of CO2, at 37 °C, with the humidity between 90–95%. Cells were seeded in 100 mm round dishes. An amount of 0.05% trypsin containing 0.02% EDTA (Corning, Kennebunk, ME, USA) and phosphate-buffered saline (PBS) without calcium and magnesium (Corning, Kennebunk, ME, USA) was used to detach cells from a plate once 80–90% cell confluence was achieved. In the next step, cells were reseeded in six-well plates (density—5 × 10^5 of cells per well) in 1 mL of DMEM after a 24 h incubation used in the presented tests.
# To examine the effect of Les-3331 on cell viability, the MTT assay was performed. […] The absorbance was measured using Spectrophotometer UV-VIS Helios Gamma (Unicam/ThermoFisher Scientific Inc., Waltham, MA, USA) at a wavelength of 570 nm. The obtained absorbance in untreated control cells was taken as 100%, while the survival of the cells incubated with tested compounds presented as a percentage of the control value.
smiles,measurement,setting,value
"CC(C)C(C(=O)O)N1C(=O)/C(=C/C(Cl)=C/c2ccc([N+](=O)[O-])cc2)SC1=S (centres unmarked) [Les-3331, 2-{5-[(Z,2Z)-2-chloro-3-(4-nitrophenyl)-2-propenylidene]-4-oxo-2-thioxothiazolidin-3-yl}-3-methylbutanoic acid]",mutagenicity,"[1]; TA100, 1 µM",not mutagenic
same,fold increase in MCB,"[1]; TA100, 5 µM",twofold increase in MCB was not reached
same,% of the Remaining Substrate,"[2]; RLMs, 120 min incubation",52% and 52.03%
same,Proposed Metabolic Pathway,"[2]; main metabolite M1, RLMs 120 min",decomposition
same,Proposed Metabolic Pathway,"[2]; metabolite M2, RLMs 120 min",decomposition and hydroxylation
same,Proposed Metabolic Pathway,"[2]; metabolite M3, RLMs 120 min",decomposition and dehydrogenation
same,Proposed Metabolic Pathway,"[2]; metabolite M4, RLMs 120 min",decomposition
same,IC50,human skin fibroblasts,28.5 µM

# — PMC9032233, “2-{5-[(Z,2Z)-2-Chloro-3-(4-nitrophenyl)-2-propenylidene]-4-oxo-2-thioxothiazolidin-3-yl}-3-methylbutanoic Acid as a Potential Anti-Breast Cancer Molecule” (International Journal of Molecular Sciences, 2022)
